Experimental data: patent US12049450B2, “Pyridyloxy-carboxylate derivative and preparation method therefor, herbicidal composition, and use” (Qingdao Kingagroot Chemical Compound Co., Ltd., priority 2018, dated 2024)

How the values were obtained:
Type in all cases: in vivo
Abutilon theophrasti = test: Post-emergence test experiment (greenhouse pot, spray at 2-3 leaf stage); conditions: 1000 g/ha; post-emergence spray at 2-3 leaf stage; assessed after 3 weeks; fresh weight inhibition rate
How it was run: (§1)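 Activity graded levels 0-5 by fresh-weight inhibition (level 5 above 85%, level 0 below 5%), assessed 3 weeks after treatment. Plants grown in greenhouse pots were sprayed post-emergence at 2-3 leaves using acetone/tween-80 solutions with methyl oleate synergist (1.5 L/ha).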

Galium spurium = test: as above; conditions: 1000 g/ha; post-emergence spray at 2-3 leaf stage; assessed after 3 weeks; fresh weight inhibition rate
How it was run: as §1

Monochoria vaginalis = test: as above; conditions: 1000 g/ha; post-emergence spray at 2-3 leaf stage; assessed after 3 weeks; fresh weight inhibition rate
How it was run: as §1

Soybean = test: Spray drift test, application by unmanned gyroplane, soybean field at 10 meters; conditions: 600 g/ha, gyroplane at 1 m, gentle breeze
Protocol: Broadleaf crops are very sensitive to hormonal herbicides, therefore crop injuries are more likely to occur in case of spray drifting. Tests were conducted in gentle breeze for the compounds of the present invention. The formulation of the compounds of the present invention was applied by DJI unmanned gyroplane with application height of 1 m and water volume of 20 kg/ha. The use rate was 600 g/ha. The active ingredient was dissolved by acetone and diluted to aqueous solution of Tween 80. There's a soybean field at 10 meters from the application area and the height of soybean plants were about 15 cm at the application time.

Digitaria sanguinalis = test: Post-emergence test experiment (greenhouse pot, spray at 2-3 leaf stage); conditions: 1000 g/ha; post-emergence spray at 2-3 leaf stage; assessed after 3 weeks; fresh weight inhibition rate
How it was run: as §1

Echinochloa crusgalli = test: as above; conditions: 1000 g/ha; post-emergence spray at 2-3 leaf stage; assessed after 3 weeks; fresh weight inhibition rate
How it was run: as §1

| Compound | Activity level (growth inhibition rate) Abutilon theophrasti (Abutilon theophrasti) | Activity level (growth inhibition rate) Galium spurium (Galium spurium) | Activity level (growth inhibition rate) Monochoria Vaginalis (Monochoria vaginalis) | Soybean, injury level by spray drift (Soybean) | Activity level (growth inhibition rate) Digitaria sanguinalis (Digitaria sanguinalis) | Activity level (growth inhibition rate) Echinochloa crusgalli (Echinochloa crusgalli) |
| --- | --- | --- | --- | --- | --- | --- |
| CC(C)C(Oc1nc(F)c(Cl)c(N)c1Cl)C(=O)OCc1ccccc1 (stereo not drawn) [Compound 27] | 5 (Level 5: the growth inhibition rate is greater than 85%) | 5 (Level 5: the growth inhibition rate is greater than 85%) | 5 (Level 5: the growth inhibition rate is greater than 85%) | 0 (Level 0: the growth inhibition rate is less than 5%) | – | – |
| Nc1c(Cl)c(F)nc(OC(C(=O)OCc2ccccc2)C(F)(F)F)c1Cl (stereo not drawn) [Compound 41] | 5 (Level 5: the growth inhibition rate is greater than 85%) | 5 (Level 5: the growth inhibition rate is greater than 85%) | 5 (Level 5: the growth inhibition rate is greater than 85%) | 0 (Level 0: the growth inhibition rate is less than 5%) | – | – |
| N#CC(Oc1nc(F)c(Cl)c(N)c1Cl)C(=O)OCc1ccccc1 (stereo not drawn) [Compound 43] | 5 (Level 5: the growth inhibition rate is greater than 85%) | 5 (Level 5: the growth inhibition rate is greater than 85%) | 5 (Level 5: the growth inhibition rate is greater than 85%) | 0 (Level 0: the growth inhibition rate is less than 5%) | – | – |
| CN(C)CC(Oc1nc(F)c(Cl)c(N)c1Cl)C(=O)SCc1ccccc1 (stereo not drawn) [Compound 46] | 5 (Level 5: the growth inhibition rate is greater than 85%) | 5 (Level 5: the growth inhibition rate is greater than 85%) | 5 (Level 5: the growth inhibition rate is greater than 85%) | 0 (Level 0: the growth inhibition rate is less than 5%) | – | – |
| CC(Oc1nc(F)c(Cl)c(N)c1Cl)C(=O)SCc1cccc(C#N)c1 (stereo not drawn) [Compound 226] | 5 (Level 5: the growth inhibition rate is greater than 85%) | 5 (Level 5: the growth inhibition rate is greater than 85%) | 5 (Level 5: the growth inhibition rate is greater than 85%) | – | 5 (Level 5: the growth inhibition rate is greater than 85%) | 5 (Level 5: the growth inhibition rate is greater than 85%) |
| CC(Oc1nc(F)c(Cl)c(N)c1Cl)C(=O)SCc1ccccc1Cl (stereo not drawn) [Compound 227] | 5 (Level 5: the growth inhibition rate is greater than 85%) | 5 (Level 5: the growth inhibition rate is greater than 85%) | 5 (Level 5: the growth inhibition rate is greater than 85%) | – | 5 (Level 5: the growth inhibition rate is greater than 85%) | 5 (Level 5: the growth inhibition rate is greater than 85%) |
| CC(Oc1nc(F)c(Cl)c(N)c1Cl)C(=O)SCc1ccc(Cl)cc1 (stereo not drawn) [Compound 228] | 5 (Level 5: the growth inhibition rate is greater than 85%) | 5 (Level 5: the growth inhibition rate is greater than 85%) | 5 (Level 5: the growth inhibition rate is greater than 85%) | – | 5 (Level 5: the growth inhibition rate is greater than 85%) | 5 (Level 5: the growth inhibition rate is greater than 85%) |
| CC(Oc1nc(F)c(Cl)c(N)c1Cl)C(=O)SCc1ccccc1Br (stereo not drawn) [Compound 229] | 5 (Level 5: the growth inhibition rate is greater than 85%) | 5 (Level 5: the growth inhibition rate is greater than 85%) | 5 (Level 5: the growth inhibition rate is greater than 85%) | – | 5 (Level 5: the growth inhibition rate is greater than 85%) | 5 (Level 5: the growth inhibition rate is greater than 85%) |
| CC(Oc1nc(F)c(Cl)c(N)c1Cl)C(=O)SCc1cccc(Br)c1 (stereo not drawn) [Compound 230] | 5 (Level 5: the growth inhibition rate is greater than 85%) | 5 (Level 5: the growth inhibition rate is greater than 85%) | 5 (Level 5: the growth inhibition rate is greater than 85%) | – | 5 (Level 5: the growth inhibition rate is greater than 85%) | 5 (Level 5: the growth inhibition rate is greater than 85%) |
| CC(Oc1nc(F)c(Cl)c(N)c1Cl)C(=O)SCc1ccc(Br)cc1 (stereo not drawn) [Compound 231] | 5 (Level 5: the growth inhibition rate is greater than 85%) | 5 (Level 5: the growth inhibition rate is greater than 85%) | 5 (Level 5: the growth inhibition rate is greater than 85%) | – | 5 (Level 5: the growth inhibition rate is greater than 85%) | 5 (Level 5: the growth inhibition rate is greater than 85%) |
| CC(Oc1nc(F)c(Cl)c(N)c1Cl)C(=O)SCc1ccccc1C(F)(F)F (stereo not drawn) [Compound 232] | 5 (Level 5: the growth inhibition rate is greater than 85%) | 5 (Level 5: the growth inhibition rate is greater than 85%) | 5 (Level 5: the growth inhibition rate is greater than 85%) | – | 5 (Level 5: the growth inhibition rate is greater than 85%) | 5 (Level 5: the growth inhibition rate is greater than 85%) |
| CC(Oc1nc(F)c(Cl)c(N)c1Cl)C(=O)SCc1cccc(C(F)(F)F)c1 (stereo not drawn) [Compound 233] | 5 (Level 5: the growth inhibition rate is greater than 85%) | 5 (Level 5: the growth inhibition rate is greater than 85%) | 5 (Level 5: the growth inhibition rate is greater than 85%) | – | 5 (Level 5: the growth inhibition rate is greater than 85%) | 5 (Level 5: the growth inhibition rate is greater than 85%) |
| CC(Oc1nc(F)c(Cl)c(N)c1Cl)C(=O)SCc1ccc(C(F)(F)F)cc1 (stereo not drawn) [Compound 234] | 5 (Level 5: the growth inhibition rate is greater than 85%) | 5 (Level 5: the growth inhibition rate is greater than 85%) | 5 (Level 5: the growth inhibition rate is greater than 85%) | – | 5 (Level 5: the growth inhibition rate is greater than 85%) | 5 (Level 5: the growth inhibition rate is greater than 85%) |
| CC(Oc1nc(F)c(Cl)c(N)c1Cl)C(=O)SCc1ccccn1 (stereo not drawn) [Compound 235] | 5 (Level 5: the growth inhibition rate is greater than 85%) | 5 (Level 5: the growth inhibition rate is greater than 85%) | 5 (Level 5: the growth inhibition rate is greater than 85%) | – | 5 (Level 5: the growth inhibition rate is greater than 85%) | 5 (Level 5: the growth inhibition rate is greater than 85%) |
| CC(Oc1nc(F)c(Cl)c(N)c1Cl)C(=O)SCc1ccncc1 (stereo not drawn) [Compound 236] | 5 (Level 5: the growth inhibition rate is greater than 85%) | 5 (Level 5: the growth inhibition rate is greater than 85%) | 5 (Level 5: the growth inhibition rate is greater than 85%) | – | 5 (Level 5: the growth inhibition rate is greater than 85%) | 5 (Level 5: the growth inhibition rate is greater than 85%) |
| CC(Oc1nc(F)c(Cl)c(N)c1Cl)C(=O)SCc1cccnc1 (stereo not drawn) [Compound 237] | 5 (Level 5: the growth inhibition rate is greater than 85%) | 5 (Level 5: the growth inhibition rate is greater than 85%) | 5 (Level 5: the growth inhibition rate is greater than 85%) | – | 5 (Level 5: the growth inhibition rate is greater than 85%) | 5 (Level 5: the growth inhibition rate is greater than 85%) |
| CC(Oc1nc(F)c(Cl)c(NCc2ccc(C(F)(F)F)o2)c1Cl)C(=O)SCc1ccccc1 (stereo not drawn) [Compound 239] | 5 (Level 5: the growth inhibition rate is greater than 85%) | 5 (Level 5: the growth inhibition rate is greater than 85%) | 5 (Level 5: the growth inhibition rate is greater than 85%) | – | 5 (Level 5: the growth inhibition rate is greater than 85%) | 5 (Level 5: the growth inhibition rate is greater than 85%) |
